According to ChEMBL document CHEMBL2069275, “Phenolic compounds as antiangiogenic CMG2 inhibitors from Costa Rican endophytic fungi” (Bioorg Med Chem Lett, 2012):
The source made the active and inactive calls. The rule behind the calls is not given here.

Key:
Anthrax toxin receptor 2 = Anthrax toxin receptor 2 (Homo sapiens, UniProt P58335, R40C); test: (§1) Inhibition of AF546-tagged CMG2 R40C mutant binding to AF488-tagged PA E733C mutant incubated for 1 to 3 hrs prior to AF488-tagged PA E733C addition measured after 3 to 4 hrs by FRET assay
HMVEC [1] = test: Antiangiogenic activity against human HMVEC at 39 uM after 4 hrs by Diff-Quick staining relative to control; type: functional
HMVEC [2] = test: Antiangiogenic activity against human HMVEC at 117 uM after 4 hrs by Diff-Quick staining relative to control; type: functional
[3] = Antiproliferative activity against human HMVEC at 39 uM after 24 to 72 hrs by Cyquant-based fluorimetry relative to control
[4] = Antiproliferative activity against human HMVEC at 117 uM after 24 to 72 hrs by Cyquant-based fluorimetry relative to control
[5] = Antiangiogenic activity against human HMVEC at 52 uM after 4 hrs by Diff-Quick staining relative to control; type: functional
[6] = Antiangiogenic activity against human HMVEC at 156 uM after 4 hrs by Diff-Quick staining relative to control; type: functional
[7] = Antiproliferative activity against human HMVEC at 52 uM after 24 to 72 hrs by Cyquant-based fluorimetry relative to control
[8] = Antiproliferative activity against human HMVEC at 156 uM after 24 to 72 hrs by Cyquant-based fluorimetry relative to control
[9] = tested on: Anthrax toxin receptor 2 (Homo sapiens), P58335 [R40C]; test: as §1
Anthrax toxin receptor 2 (Homo sapiens), P58335 [R40C], sequence (P58335 whole entry R40C): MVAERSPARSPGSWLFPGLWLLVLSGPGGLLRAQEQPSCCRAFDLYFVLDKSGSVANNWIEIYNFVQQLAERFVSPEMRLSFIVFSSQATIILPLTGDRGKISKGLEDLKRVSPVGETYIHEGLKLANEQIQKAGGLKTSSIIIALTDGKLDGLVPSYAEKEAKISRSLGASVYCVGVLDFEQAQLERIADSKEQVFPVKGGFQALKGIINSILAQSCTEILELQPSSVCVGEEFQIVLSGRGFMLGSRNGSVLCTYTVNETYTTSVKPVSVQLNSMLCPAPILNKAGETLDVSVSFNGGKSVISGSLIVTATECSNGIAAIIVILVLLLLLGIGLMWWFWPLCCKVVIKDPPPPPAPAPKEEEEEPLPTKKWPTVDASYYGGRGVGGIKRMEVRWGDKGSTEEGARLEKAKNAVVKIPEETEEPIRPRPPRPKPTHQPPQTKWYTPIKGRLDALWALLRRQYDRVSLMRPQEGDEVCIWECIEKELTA

Anthrax toxin receptor 2, sequence (P58335 whole entry R40C): as above

With COc1cccc2c1c(O)cc1cc(C)c(=O)oc12 the IC50 (Anthrax toxin receptor 2) was 500 nM, the Activity (HMVEC [1]) was “inactive” and the Activity (HMVEC [2]) was “inactive”. For the same molecule, the Activity [3] was “Toxic” and the Activity [4] was “Toxic”.

In the case of Cc1cc2cc(O)cc(O)c2c(=O)o1, the Activity [5] is reported as 96%, the Activity [6] is reported as 93.1% and the Activity [7] is reported as “Non-toxic”. The Activity [8] was “Non-toxic”.

For COc1cccc2c1c(OC)cc1cc(C)c(=O)oc12, the inhibition [9] was “inactive”.
